Experimental data published in patent US20250019379A1, “NEW CRYSTAL FORM OF COMPOUND, AND PREPARATION METHOD THEREFOR AND USE THEREOF” (E-nitiate Biopharmaceuticals (Hangzhou) Co., Ltd, priority 2021, published 2025).
Each block holds one compound with its values, some of them ahead of it.

Assays:
Format in all cases: physicochemical
[1] = Dynamic solubility in biological solvents at 37° C.; settings: 37° C.
Protocol: (1) Preparation method of FaSSIF: a. Weigh 42 mg NaOH, 395 mg NaH2PO4·H2O and 619 mg NaCl in a 100 mL beaker, add 90 mL deionized water to dissolve: b. Adjust the pH to […]; Dilute to 100 mL with deionized water to obtain FaSSIF blank solvent: c. Weigh 224 mg of Simulated Intestinal Fluid (hereinafter referred to as SIF powder), add 50 mL of the above FaSSIF blank solvent, and stir until completely dissolved; use Dilute the FaSSIF blank solvent to 100 mL to prepare the solvent FaSSIF; d. Let it stand at room temperature for 2 hours before use.
(2) Preparation method of FeSSIF: a. Weigh 404 mg NaOH, 865 mg glacial acetic acid and 1189 mg NaCl in a 100 mL beaker, add 90 mL deionized water to dissolve: b. Adjust the pH to 5.0 with 1N NaOH or 1N HCl; Dilute to 100 mL with deionized water to obtain FeSSIF blank solvent; c. Weigh 1120 mg SIF powder and add 50 mL of the above FeSSIF blank solvent, stir until dissolved: dilute to 100 mL with FeSSIF blank solvent to obtain FeSSIF solvent d. Let it stand at room temperature before use to ensure a clear solution.
(3) Preparation method of SGF: a. Weigh 200 mg NaCl in a 100 mL beaker, add 90 mL deionized water to dissolve; b. Adjust the pH to 1.6 with 1N HCl; dilute to 100 mL with deionized water to obtain SGF Blank solvent; c. Weigh 6 mg SIF powder and add 50 mL of the above SGF blank solvent, stir until dissolved: dilute to 100 mL with SGF blank solvent to prepare the solvent SGF: d. Let it stand at room temperature before use to ensure a clear solution.
(100 rpm). Take 1.3 mL of the suspension (or clarified solution) respectively at 1, 4, and 24 hours, and centrifuge the suspension for 5 minutes. The solid obtained is used for crystal form detection (XRPD), and the supernatant/clarified solution is filtered for solubility testing and pH test.
Solubility data of the samples were collected using a high-performance liquid chromatograph equipped with an image diode array detector.

[2] = Solid state stability (HPLC purity, XRPD); settings: for Purity (%): open
Protocol: Purity testing (via HPLC) and crystal form detection (via XRPD) were performed on starting samples, samples stored for one week, and samples stored for two weeks.

[3] = Influencing factors test (light, high temperature, high humidity); settings: 5000Lx light, 60° C., 90% RH±5% RH; 0, 5, 10, 30 days
Protocol: The stability of the crystalline form of the present invention under accelerated test conditions was determined. […] Stability testing was conducted under the following conditions, and samples were taken on the 0th day, the 5th day, the 10th day and the 30th day. The content, total impurities, and XRPD patterns of the samples were recorded and compared with the initial data.

[4] = Thermodynamic analysis experiment (heating, XRPD)
Protocol: Crystalline form H and crystalline form S were heated to appropriate temperatures under N2 protection, and after cooling to room temperature, the XRPD of the solids was measured.

[5] = Crystal form stability test
Protocol: The crystalline form M was stored at a temperature of 25° C. and a humidity of 55% RH for 35 days, and the XRPD of the solid was tested.

Changes in Crystal form ([1]; FaSSIF, 1 h): no change
pH ([1]; FaSSIF, 1 h): 6.45
pH ([1]; FaSSIF, 4 h): 6.40
Changes in Crystal form ([1]; FaSSIF, 24 h): no change
pH ([1]; FaSSIF, 24 h): 6.49
pH ([1]; FeSSIF, 1 h): 4.96
pH ([1]; FeSSIF, 4 h): 4.98
Changes in Crystal form ([1]; FeSSIF, 24 h): no change
pH ([1]; FeSSIF, 24 h): 5.00
Changes in Crystal form ([1]; SGF, 1 h): no change
pH ([1]; SGF, 1 h): 2.60
pH ([1]; SGF, 4 h): 2.98
Changes in Crystal form ([1]; SGF, 24 h): no change
pH ([1]; SGF, 24 h): 2.71
crystal form stability when suspended and stirred ([1]; SGF/FeSSIF/FeSSIF, 24 hours): stable
solid-state stability (conclusion) [2]: good solid-state stability
Purity (%) ([2]; 1 week, 25° C./60% RH): 99.80%
Purity (%) ([2]; 1 week, 40° C./75% RH): 99.93%
Purity (%) ([2]; 1 week, 60° C.): 99.91%
Crystal form changes ([2]; 1 week, 25° C./60% RH, 40° C./75% RH, 60° C.): no change
Purity (%) ([2]; 2 week, 25° C./60% RH): 99.87%
Purity (%) ([2]; 2 week, 40° C./75% RH): 99.87%
Purity (%) ([2]; 2 week, 60° C.): 99.92%
Crystal form changes ([2]; 2 week, 25° C./60% RH, 40° C./75% RH, 60° C.): no change
change in the crystalline form (XRPD) ([2]; after one week and two weeks of storage under the selected conditions): no change
change in purity ([2]; after one week and two weeks under the selected conditions): no significant change
Starting sample Purity (%) ([2]; starting sample): 99.87%
stability under accelerated test conditions (content, total impurities, XRPD) [3]: better stability
Structure (SMILES): C[C@@H](O)c1nc2cnc3[nH]ccc3c2n1N1CCC(CC#N)CC1 [Crystalline form Q, (R)-2-(1-(2-(1-hydroxyethyl)imidazo[4,5-d]pyrrolo[2,3-b]pyridine-1(6H)-yl)piperidin-4-yl)acetonitrile]

crystal form after heating (XRPD) ([4]; heated to 215° C. under N2, cooled to room temperature): converted into crystalline form A
Structure (SMILES): C[C@@H](O)c1nc2cnc3[nH]ccc3c2n1N1CCC(CC#N)CC1 [Crystalline form S, (R)-2-(1-(2-(1-hydroxyethyl)imidazo[4,5-d]pyrrolo[2,3-b]pyridine-1(6H)-yl)piperidin-4-yl)acetonitrile]

stability under accelerated test conditions (content, total impurities, XRPD) [3]: better stability
Structure (SMILES): C[C@@H](O)c1nc2cnc3[nH]ccc3c2n1N1CCC(CC#N)CC1 [Crystalline form H, (R)-2-(1-(2-(1-hydroxyethyl)imidazo[4,5-d]pyrrolo[2,3-b]pyridine-1(6H)-yl)piperidin-4-yl)acetonitrile]
crystal form after heating (XRPD) ([4]; heated to 162° C. under N2, cooled to room temperature): partially converted into crystalline form A
crystal form after heating (XRPD) ([4]; heated to 210° C. under N2, cooled to room temperature): completely converted into crystalline form A

stability under ambient temperature and humidity [5]: unstable
crystal form after storage (XRPD) ([5]; 25° C., 55% RH, 35 days): transformed into the crystalline form A
Structure (SMILES): C[C@@H](O)c1nc2cnc3[nH]ccc3c2n1N1CCC(CC#N)CC1 [Crystalline form M, (R)-2-(1-(2-(1-hydroxyethyl)imidazo[4,5-d]pyrrolo[2,3-b]pyridine-1(6H)-yl)piperidin-4-yl)acetonitrile]
